From patent publication US20110076768A1, “METHOD FOR DETECTING CARCINOMA AND AGENT FOR SUPPRESSING CARCINOMA” (priority 2008, published 2011)

System: miR-34b, miR-132, miR-137, miR-193a, and miR-203 genes in oral squamous-cell carcinoma cell lines
Assay: Real-time RT-PCR of candidate miRNA gene expression after treatment with demethylating reagent
Assay type: cell-based
Excerpt: The miRNA expression levels were compared in terms of relative value based on the RNU6B expression level as an internal control. Stars represent 21 types of miRNA genes located on or around the CpG islands. […] A bar graph representing each cell line represents a comparison of expression levels in the RT7 cells and in each cell line. […] A bar graph representing each cell line indicates a comparison of expression levels in untreated cells and in treated cells. […] Asterisks (*) represent a frequency of oral squamous-cell carcinoma cell lines in which recovery of candidate miRNA expression (expression levels of more than 1.5-fold) was observed by comparing untreated cells with cells that have been treated with 10 μM 5-aza-dCyd.
In order to inspect whether or not expression of these 5 types of miRNA genes was suppressed by DNA methylation, oral squamous-cell carcinoma cell lines in which these 5 types of miRNA genes had not been expressed were treated with 1 μM and 10 μM demethylating reagents (5-aza-dCyd) for 5 days. RNA was extracted from these cell lines and expression of candidate miRNA genes was inspected via real-time RT-PCR (FIG. 1D).

## Nc1ncn([C@H]2C[C@H](O)[C@@H](CO)O2)c(=O)n1 [5-aza-dCyd, 5-aza-2′-deoxycytidine]
1 μM and 10 μM for 5 days, OSCC cell lines in which the 5 miRNA genes had not been expressed
  recovery of candidate miRNA gene expression: expression of these genes was found to be recovered
Oral squamous-cell carcinoma cells cultured in the presence of the demethylating reagent
  demethylation of CpG islands near the miRNA genes: possible to demethylate such CpG islands
